Measurements as given in patent US8623408B2, “Cladribine formulations for improved oral and transmucosal delivery” (Ares Trading S.A., priority 2003, dated 2014).
Values joined by “and” are separate entries in the source; they are usually repeats but may differ in a detail not shown here. Equal values may be shown once. Read-outs that look alike come from different tables or passages of the source.

Assay: Bioavailability and pharmacokinetic studies in beagle dog model
Format: in vivo
Set-up: AUC/Dose: unit not given here
Conditions: dogs; for AUC/Dose: dose in mg/kg; for concentration at 5 min: 5 mg/animal, read-out: Cfirst (first measured concentration at 5 minutes)
Method: The bioavailability of cladribine when complexed with γCD or HPβCD was evaluated in a beagle dog model.
Bioavailability and pharmacokinetic studies were conducted in a beagle dog model as follows.
Outbred male beagle dogs (identified as PM01-PM06) obtained from IDRI (Dunakeszi, Hungary) were allowed laboratory diet and water ad libitum. The same dogs were used throughout the study to minimize inter- and intrasubject variability. The bioavailability and pharmacokinetic studies were conducted as follows.
In the first test period, 5 mg cladribine (0.25 mg/ml in isotonic saline) was administered intravenously to test subjects. Blood samples were collected at various time intervals over 48 hours. In the second test period, half of the subjects received buccally a tablet as described above containing a saturated cladribine-γCD or -HPβCD complex. Serial blood samples were collected over 48 hours. The third test period repeated the second test period with the exception that the subjects previously receiving the γ-cyclodextrin buccal tablet were now given hydroxypropyl-β-cyclodextrin buccal tablets, with hydroxypropyl-β-cyclodextrin tablet recipients from the second period receiving γ-cyclodextrin buccal tablets. The fourth and fifth test periods repeated test periods two and three with the exception that the tablets were given orally.
Cladribine levels in the blood were measured by HPLC and an LC/MS/MS method. The TopFit 2.0 Pharmacokinetic and Pharmacodynamic Data Analysis System was used for the pharmacokinetic analysis of the data.
The peak areas, calibration curves, accuracy, precision values and the concentrations were determined using Analyst Software 1.1 (PE SCIEX, Foster City, US). For calculation of mean and standard deviation, Excel 5.0 software was used. The calibration curve was fitted using the ratio of concentrations of analyte and internal standard versus the ratio of the peak areas of them. A straight line was fitted on the experimental points by weighted least squares linear regression analysis. The weighting scheme used was 1/concentration squared as pg/ml plasma.
For calculation of mean, standard deviation and CV %, Excel 5.0 software was used. Lower levels than the limit of quantification were not accepted. Mean and S.D. values were calculated only for the concentrations measured after intravenous administration.
Pharmacokinetic analysis was performed on the basis of individual plasma concentration versus time curves. The mean and S.D. of parameters obtained from individual data were calculated. The linear-trapezoidal rule was used for calculation of the area under the plasma concentration time curve from 0 until the last measured concentration (AUD). Using the terminal regression line the area extrapolated to infinity (AUCt-∞) was calculated in the following way: AUCt-∞=ccalc/λz • where: Ccalc represents the estimated plasma concentration by the regression line at the last sampling time point with measured concentration above the limit of quantification, and λz represents the rate constant calculated from the regression line.
The points determining the regression line, i.e. the terminal phase, were selected by visual determination of the linear segment of the semilogarithmic curve. The total area under the curve (AUC) was calculated by adding together the partial areas: AUC=AUD+AUCt-∞. The AUC values were normalized by the actual dose given in the particular period. For calculation of the bioavailability, the buccal/oral AUC/dose value was divided by the intravenous AUC/dose value.

[1] = intravenous bolus, 5 mg cladribine/animal, Mean of 6 dogs
[2] = intravenous bolus, 5 mg cladribine/animal, individual dogs PM01-PM06

With `Nc1nc(Cl)nc2c1ncn2[C@H]1C[C@H](O)[C@@H](CO)O1` [cladribine, 2-chloro-2′-deoxyadenosine] the AUD [1] was 377 ng·h/mL, the AUDext [1] was 1.4% and the “Cinitial (extrapolated value at the end of the bolus)” value [1] was 563 ng/mL. The MRTtot [1] was 1.3 h, the AUC/Dose [1] was 967 and the AUC/Dose [2] was 918 and 965 and 947 and 949 and 948 and 1077. For the same compound, the AUC [2] was 0.338 µg·h/mL and 0.366 µg·h/mL and 0.432 µg·h/mL and 0.342 µg·h/mL and 0.433 µg·h/mL, the AUD [2] was 379 ng · h/ml and 334 ng · h/ml and 359 ng · h/ml and 426 ng · h/ml (2×) and 337 ng · h/ml and the AUDext [2] was 1.4% (3×) and 1.0% and 1.9% and 1.5%. For the same compound, the “Cfirst (first measured concentration at 5 minutes)” value [2] was 306 ng/mL and 478 ng/mL and 560 ng/mL and 446 ng/mL and 605 ng/mL, the “Cinitial (extrapolated value at the end of the bolus)” value [2] was 569 ng/mL and 335 ng/mL and 567 ng/mL and 655 ng/mL and 525 ng/mL and 726 ng/mL and the Cltot [2] was 247 mL/min and 228 mL/min and 193 mL/min and 244 mL/min and 192 mL/min. The Cltot/kg [2] was 1.06 L/h/kg and 0.924 L/h/kg, the MRTtot [2] was 1.4 h and 1.5 h and 1.3 h (3×) and 1.2 h and the t½ terminal [2] was 11.3 h and 9.9 h and 10.4 h and 8.5 h and 10.7 h. The clearance (male, beagle, dog, plasma, iv, 5 mg, after intravenous administration, read-out: mean total clearance) was 1.02 L/h/kg, the half-life (male, beagle, dog, plasma, iv, 5 mg, after intravenous administration, read-out: terminal elimination half-life (converted)) was roughly 10 h and the AUC (male, beagle, dog, plasma, iv, 5 mg, intravenous bolus, 5 mg cladribine/animal, Mean of 6 dogs, read-out: AUC) was 0.382 µg·h/mL. For the same compound, the clearance (male, beagle, dog, plasma, iv, 5 mg, intravenous bolus, 5 mg cladribine/animal, Mean of 6 dogs, read-out: Cltot) was 220 mL/min, the clearance (male, beagle, dog, plasma, iv, 5 mg, intravenous bolus, 5 mg cladribine/animal, Mean of 6 dogs, read-out: Cltot/kg) was 1.04 L/h/kg and the half-life (male, beagle, dog, plasma, iv, 5 mg, intravenous bolus, 5 mg cladribine/animal, Mean of 6 dogs, read-out: t½ terminal (converted)) was 10.3 h. The AUC (male, beagle, dog, plasma, iv, 5 mg, intravenous bolus, 5 mg cladribine/animal, individual dogs PM01-PM06, read-out: AUC) was 0.383 µg·h/mL, the clearance (male, beagle, dog, plasma, iv, 5 mg, intravenous bolus, 5 mg cladribine/animal, individual dogs PM01-PM06, read-out: Cltot) was 217 mL/min and the clearance (male, beagle, dog, plasma, iv, 5 mg, intravenous bolus, 5 mg cladribine/animal, individual dogs PM01-PM06, read-out: Cltot/kg) was 1.09 L/h/kg. The half-life (male, beagle, dog, plasma, iv, 5 mg, intravenous bolus, 5 mg cladribine/animal, individual dogs PM01-PM06, read-out: t½ terminal (converted)) was 11 h, the concentration at 5 min (male, beagle, dog, plasma, iv, intravenous bolus, 5 mg cladribine/animal, Mean of 6 dogs) was 0.479 µg/mL and the concentration at 5 min (male, beagle, dog, plasma, iv, intravenous bolus, 5 mg cladribine/animal, individual dogs PM01-PM06) was 0.477 µg/mL.
